Results reported in US11382884B2, “Method for reducing lung infection” (priority 2017, dated 2022).
Read-outs that look alike come from different tables or passages of the source.

Legend:
[1] = Experimental: (§1) Subjects are then discharged and treatment continued twice a day for four weeks. Subjects are monitored for a further four weeks, bringing the total study time to 10 weeks. Sputum is collected by induction with nebulised 3% hypertonic saline at 8-10 L/min for […]. Samples are collected prior to treatment, and at 2, 6 and 10 weeks, processed according to the relevant protocol and stored at −80° C.
(§2) Expectorated sputum is stored in RNAlater®, total RNA is extracted using a Qiagen RNEasy® or similar extraction kit, converted into cDNA, and inflammatory markers are monitored using qPCR as described by Sivaneson et al. (Sivaneson, M., Mikkelsen, H., Ventre, I., Bordi, C., and Filloux, A. (2011). Two-component regulatory systems in Pseudomonas aeruginosa: an intricate network mediating fimbrial and efflux pump gene expression. Mol Microbiol 79, 1353-1366) and quantified relative to known housekeeping genes, such as actin and/or GAPDH.
(§3) Expectorated sputum is frozen directly without processing and assayed for inflammatory markers as above. As a measure of structural damage, levels of matrix metalloproteinases (MMPs) and tissue inhibitors of metalloproteinases (TIMPs) are measured using gelatin zymography and immunoassays, respectively, as previously described (Gaggar et al., Eur Respir J. 2011 38(3): 721-727; Garratt et al., Eur Respir J. 2015 46(2):384-94). The amount of iron in the sputum is quantified by ICP-MS as previously described (Hunter et al., MBio. 2013 4(4):1-8). The amount of iron-binding proteins is assessed using immunoassays. Oxidative stress is assessed by measuring glutathione (GSSG and GSH) using immunoassays as previously described (Kettle et al., Eur Respir J. 2014 44(1):122-9).

P. aeruginosa [2] = details: after two weeks of treatment, 300 mg EDTA/day nebulised with tobramycin; sputum; FIG. 25
Source text: Patients were monitored for a further four weeks, bringing the total study time to 10 weeks.

[3] = remark: listed apart in the source
Experimental: A single centre, randomised, double blind, crossover study of cystic fibrosis subjects is carried out. Subjects are randomised for treatment with inhaled CaEDTA or saline (placebo) 2-4 times a day for two weeks.
Iron levels, inflammatory markers, MMP/TIMP and FEV1 are monitored as above. Myeloperoxidase activity are also assayed as a measure of neutrophilic inflammation as previously described (Gaggar et al., 2011). 3-chlorotyrosine is measured as a biomarker of the potent oxidant hypochlorous acid. Levels are measured using stable isotope dilution gas chromatography with mass spectrometry (Gaggar et al., 2011). Protein carbonyls are measured as an indicator of ROS using a commercial immunoassay kit (Gaggar et al., 2011).

[4] = remark: listed apart in the source
Experimental: Subjects were then discharged and treatment was continued twice a day for four weeks. Patients were monitored for a further four weeks, bringing the total study time to 10 weeks. At each study visit, lung function was measured by spirometry. Data was recorded as the best of three attempts, and results were expressed as % predicted.

[5] = in vivo; cited from earlier work
[6] = in vivo; cited from earlier work; remark: listed apart in the source
[7] = remark: listed apart in the source
Experimental: as §1
as §2, with “RNAlater,” for “RNAlater®,”
as §3, with “MBio 2013,” for “MBio. 2013”

[8] = remark: listed apart in the source
Experimental: Subjects with CF who need treatment with dry powder tobramycin are allocated into four cohorts and receive 112 mg dry powder twice a day for 28 days. In addition, Cohort 1 (patients>18 years) receives ascending doses of dry powder CaEDTA (37.5 mg BID for 1 week; 75 mg BID for 2 weeks, 150 mg BID for 1 week). Patients in cohort 2 (>18 years) receive CaEDTA (37.5 mg BID for 1 week; 75 BID for 2 weeks; 75 mg QID for 1 week). Patients in cohort 3 (12-18 years) receive CaEDTA (37.5 mg BID for 1 week; 75 mg BID for 2 weeks, 150 mg BID for 1 week. Finally, a control cohort receives tobramycin alone for 28 days.
Sputum samples are collected weekly and assessed for markers of infection and inflammation. Bacteria are monitored by sputum colony counts. As a measure of structural damage, levels of matrix metalloproteinases (MMPs) and tissue inhibitors of metalloproteinases (TIMPs) are measured using gelatin zymography and immunoassays, respectively, as previously described (Gaggar et al., Eur Respir J. 2011 38(3): 721-727; Garratt et al., Eur Respir J. 2015 46(2):384-94). The amount of iron in the sputum is quantified by ICP-MS as previously described (Hunter et al., 2013). The amount of iron-binding proteins is assessed using immunoassays. Myeloperoxidase activity is also assayed as a measure of neutrophilic inflammation as previously described (Gaggar et al., 2011). 3-chlorotyrosine is measured as a biomarker of the potent oxidant hypochlorous acid. Levels are measured using stable isotope dilution gas chromatography with mass spectrometry (Gaggar et al., 2011). Protein carbonyls are measured as an indicator of reactive oxygen species (ROS) using a commercial immunoassay kit (Gaggar et al., 2011). Oxidative stress is assessed by measuring glutathione (GSSG and GSH) using immunoassays as previously described (Kettle et al., 2014). Gene expression of inflammatory and oxidative stress markers (e.g. IL-8, IL-6, TNFa) will also be monitored by Nanostring, and proteins will be measured by ELISA. Oxidative stress can also be measured via metabolites, such as molondialdehyde (colorimetric assay) or 8-isoprostane (ELISA). Iron will be measured by elemental analysis using laser ablation-inductively coupled plasma-mass spectrometry (LA-ICP-MS).

P. aeruginosa [9] = details: in vivo; cited from earlier work
[10] = EDTA group compared with placebo group

With `O=C(O)CN(CCN(CC(=O)O)CC(=O)O)CC(=O)O` [EDTA, ethylene diamine tetraacetic acid] the “gene expression of inflammatory markers (qPCR, sputum)” value [1, 10] was “mean reduction”, the “inflammatory markers in sputum” value [1, 10] was “reduction” and the “balance between MMPs and TIMPs” value ([1]; especially MMP-9 and TIMP-1) was “change in the balance”. The “reduction in colony counts” value (P. aeruginosa [2]) was greater than 400 fold, the MMP/TIMP balance ([3]; compared with placebo) was “altered” and the “levels of inflammatory markers” value ([3]; compared with placebo) was “reduced levels”. The levels of iron ([3]; compared with placebo) was “reduced levels”, the “mean FEV1” value ([3]; compared with placebo) was “increased” and the “mean levels of carbonyls” value ([3]; human, in vivo) was “lower mean levels”. The “mean levels of chlorotyrosine” value ([3]; human, in vivo) was “lower mean levels”, the myeloperoxidase activity ([3]; human, in vivo) was “reduced” and the “mean change in FEV1” value ([4]; 2, 6 and 10 weeks after start of treatment, FIG. 26) was “clear improvement in lung function”. For the same compound, the “dose dependence of effect on lung function” value ([4]; mg EDTA/kg body weight, FIG. 27) was “dose-dependent effect on lung function”, the “effect on FEV1” value [5] was “no effect on FEV1” and the bronchoconstriction [6] was “concentration-dependent bronchoconstriction”. The “gene expression of inflammatory markers (qPCR, sputum)” value [7, 10] was “mean reduction”, the “inflammatory markers in sputum” value [7, 10] was “reduction” and the FEV1 ([7]; compared with placebo (carrier only)) was “increase”. The “balance between MMPs and TIMPs” value ([7]; especially MMP-9 and TIMP-1) was “change in the balance”, the “iron levels in sputum” value ([7]; human, in vivo) was “decrease” and the “inflammatory markers in sputum” value [8, 10] was “reduction”. For the same compound, the FEV1 ([8]; compared with control patients) was “increase”, the “bacterial load in sputum” value ([8]; compared with control patients) was “reduction” and the “balance between MMPs and TIMPs” value ([8]; especially MMP-9 and TIMP-1) was “change in the balance”. The “iron levels in sputum” value ([8]; human, in vivo) was “decrease” and the “treatment of bacterial infections by inhaled EDTA alone” value (P. aeruginosa [9]) was “does not treat bacterial infections”.
